The test system of one data set is Aphidius rhopalosiphi. Put plainly: LR50; higher = less toxic. Conditions: not reported; mortality.
In another data set the test system is Lepomis macrochirus. Particulars: acute; duration: 96 hours; mortality.
The next data set deals with Landoltia sp. Conditions: acute; duration: 7 days; biomass.
A further data set relates to Daphnia magna. Particulars: chronic/long-term; duration: 21 days; reproduction.
The next data set has as its system Canidae. Conditions: subchronic; duration: 90 days; oral; Dog Other; clinical chemistry.
The next data set has as its system Anas platyrhynchos. Particulars: oral, mortality.
The next data set relates to Tagia sp. Conditions: acute, duration: 14 days.
The subject of the next data set is Apis mellifera. Particulars: acute; duration: 48 hours; oral; unspecified; mortality.
For the next data set, the system named is Oncorhynchus mykiss. Conditions: chronic/long-term; duration: 21 days; mortality.
The test system of a further data set is Anabaena flosaquae. Conditions: acute; duration: 72 hours; biomass.
In another data set the test system is Bibionidae. Particulars: chronic/long-term; duration: 28 days; development.

Each structure is given as a SMILES string. In brackets after ≈: the same amount, converted by molar mass.

In turn, `N#CN` [Cyanamide] displayed an LR50 with Aphidius rhopalosiphi of 432 g/ha. In addition, the LC50 in the data set with Lepomis macrochirus is 43.1 µg/mL (≈ 1030 µM); with Anas platyrhynchos (short-term, feed) it was over 435 mg/kg-day; in the data set on Tagia sp. (mortality), over 112 mg/kg; in the data set on Colinus virginianus (acute, oral, diet, mortality), over 1040 mg/kg-day. In addition, the NOEC with Landoltia sp. was 0.5 mg/L; with Daphnia magna, 0.1 mg/L; in the data set with Tagia sp. (body weight) it was 55.7 mg/kg; with Oncorhynchus mykiss, 3.7 mg/L; in the data set with Anabaena flosaquae, 0.05 mg/L; in the data set on Colinus virginianus (reproduction developmental), 13.3 mg/kg-day. This compound registered an NOEC in the data set on Bibionidae of 6.6 mg/L. Besides, the NOAEL in the data set on Canidae stood at 0.6 mg/kg-day; in the data set on Rattus norvegicus (developmental, development), 5 mg/kg-day. Besides, the LD50 in the data set on Rattus norvegicus (acute, oral, mortality) was 223 mg/kg-day; in the data set with Apis mellifera it was over 10 µg/piece; in the data set with Colinus virginianus (acute, oral, mortality), 350 mg/kg-day. Moreover, the NOEL in the data set on Rattus norvegicus (reproduction developmental, reproduction) amounted to 3.75 mg/kg-day.

In the data set on Anas platyrhynchos (acute, unspecified), `N#CN=C(N)N` [Cyanoguanidine] displayed an LD50 of over 2000 mg/kg-day.

The term NOAEL denotes the highest dose or exposure tested at which no adverse effect was seen.
